The results in this text go back to patent publication US7049396B2, “Synthetic peptides that inhibit leukocyte superoxide anion production and/or attract leukocytes” (priority 1995, dated 2006).

One series relates to E. coli, ATCC 25922. The series is described as follows: Gel-overlay antibacterial assay. It counts as cell-based, Escherichia coli. Particulars: 10 μg peptide per lane, AU-PAGE gel overlaid with E. coli, 18 hr.
Another series relates to Escherichia coli, 25922. In words: MIC/MBC microdilution broth method. It counts as cell-based. Particulars: Escherichia coli. On the procedure: (§1) Plates were incubated at 37° C. for 18 hr. […] Viable bacteria were counted. Tests were repeated on three different days. […] The results were expressed as the mean ± standard deviation. […] S. choleraesuis, ATCC 6962 was used in this experiment. […] Slides were stained with LeukoStat solutions (Fisher, Pittsburgh, Pa.). […] At least 200 neutrophils were examined. […] Tests were repeated on three different days. Results were expressed as the mean±standard deviation.
A general note: Dilution methods test growth across graded concentrations, often in twofold steps.

The next series relates to Salmonella typhimurium. In words: MIC/MBC microdilution broth method. Format: cell-based. Particulars: Salmonella typhimurium. As for the experimental part: as §1
For a further series, the system named is Streptococcus suis. In words: MIC/MBC microdilution broth method. It counts as cell-based. Particulars: Streptococcus suis. As for the experimental part:
as §1

For another series, the system named is S. typhimurium. The series is described as follows: Postantibiotic effect (PAE). It counts as cell-based, Salmonella typhimurium. The settings on record: 2 hr exposure. On the procedure:
as §1

Series [1] deals with rat intestinal epithelial cell line, IEC-6. It counts as cell-based. On the procedure:
Influence of PR-26 and PR-39 on intestinal epithelial cells. A nonradioactive assay based on the cellular conversion by viable cells of a tetrazolium salt into a blue formazan product was used to determine if PR-26 or PR-39 were toxic to intestinal epithelial cells. Ninety-six-well microtiter plates were seeded with the rat intestinal epithelial cell line, IEC-6, (5×10^4 cells/well) in DMEM containing 10% fetal bovine serum, 1% antibiotic/antimycotic, and […], and incubated at 37° C. for three days to achieve confluency. […] Well contents then were aspirated and monolayers were washed with medium. Medium (100 μl) and 15 μl of dye solution (Promega, Madison, Wis.) were added to each well and plates were incubated for 4 hr. at 37° C. Solubilization buffer (100 μl, Promega, Madison, Wis.) was added to each well and plates were incubated overnight to allow solubilization of the formazan crystals. Absorbance then was read at 570 nm using a microplate reader.

The subject of series [2] is whole-cell NADPH oxidase activity of porcine peripheral blood neutrophils. In words: Whole-cell O2- production, ferricytochrome c reduction. Format: cell-based. On the procedure:
Regulation of neutrophil O2^− production by PR-26 and PR-39. • (i) O2^− production assays. Whole-cell O2^− production by por-cine peripheral blood neutrophils was determined by the superoxide dismutase-inhibitable reduction of ferricytochrome c as previously described (Shi et al., 1994a). Cell-free O2^− production was measured as previously described (Leto et al., 1991) using 96-well plates and a Molecular Devices Thermomax microplate reader (Menlo Park, Calif.). Reactions (100 μl) contained 10^6 cell equivalents of human neutrophil cytosol and 5×10^5 cell equivalents of deoxycholate-solubilized membranes prepared from human peripheral blood neutrophils. Reaction mixtures contained 50 mM potassium phosphate (pH 7), 0.2 mM acetylated cytochrome c, 4 mM MgCl2, 1 mM EGTA, 10 μM FAD, 1 μM GTP-γS, and 200 μM NADPH. The reactions were initiated by addition of 40 μM arachidonic acid. Control reactions contained 5 μg of superoxide dismutase. Superoxide anion generation was calculated based on superoxide dismutase-inhibitable changes in cytochrome c absorbance observed at 551 nm. The reactions were followed for 20 min. after addition of arachidonic acid, with absorbance readings taken at 1-min. intervals. Maximum rates of superoxide generation were calculated from a linear least squares fit of 10 consecutive 1-min. data points. Determinations were based on reactions performed in duplicate. • (ii) Binding assays. Neutrophils were disrupted by sonication, and unbroken cells, debris, and granules were removed by centrifuigation (13,000×g for 60 min.). Cytosol fractions were prepared by centrifugation (100,000 g for 45 min.) of the supernatants to remove residual membranes. Cytosolic proteins (15 μg in reducing buffer) were separated on a 7.5% SDS PAGE gel, transferred to PVDF membranes, and probed with biotinylated PR-39 (0.3 μM) for 2 hr. Binding between PR-39 and cytosolic proteins were visualized by a chemiluminescent streptavidin alkaline phosphatase system using an Epson scanner (Torrance, Calif.) and the NIH Image program. PR-39 was labeled with biotin hydrazide at the carboxy-terminus (Pierce Chemical Co., Rockford, Ill.) and purified by gel filtration chromatography.

In another series the test system is p67^phox. In words: Ligand-blot binding assay with biotinylated PR-39, p67phox. Particulars: neutrophil cytosolic proteins probed with biotinylated PR-39. As for the experimental part: Regulation of neutrophil O2^− production by PR-26 and PR-39. • (i) O2^− production assays. Whole-cell O2^− production by por-cine peripheral blood neutrophils was determined by the superoxide dismutase-inhibitable reduction of ferricytochrome c as previously described (Shi et al., 1994a). Cell-free O2^− production was measured as previously described (Leto et al., 1991) using 96-well plates and a Molecular Devices Thermomax microplate reader (Menlo Park, Calif.). Reactions (100 μl) contained 10^6 cell equivalents of human neutrophil cytosol and 5×10^5 cell equivalents of deoxycholate-solubilized membranes prepared from human peripheral blood neutrophils. Reaction mixtures contained 50 mM potassium phosphate (pH 7), 0.2 mM acetylated cytochrome c, 4 mM MgCl2, 1 mM EGTA, 10 μM FAD, 1 μM GTP-γS, and 200 μM NADPH. The reactions were initiated by addition of 40 μM arachidonic acid. Control reactions contained 5 μg of superoxide dismutase. Superoxide anion generation was calculated based on superoxide dismutase-inhibitable changes in cytochrome c absorbance observed at 551 nm. The reactions were followed for 20 min. after addition of arachidonic acid, with absorbance readings taken at 1-min. intervals. Maximum rates of superoxide generation were calculated from a linear least squares fit of 10 consecutive 1-min. data points. […]

The structures appear in SMILES notation. ≈ marks a conversion by molar mass, not a printed value. Where a SMILES comes first, the peptide text is derived from it.

For the compound `CC[C@H](C)[C@H](NC(=O)[C@H](CCCNC(=N)N)NC(=O)[C@@H]1CCCN1C(=O)[C@@H]1CCCN1C(=O)[C@H](CC(C)C)NC(=O)[C@H](CCCNC(=N)N)NC(=O)[C@@H]1CCCN1C(=O)[C@@H]1CCCN1C(=O)[C@H](Cc1ccccc1)NC(=O)[C@H](Cc1ccccc1)NC(=O)[C@@H]1CCCN1C(=O)[C@@H]1CCCN1C(=O)[C@@H]1CCCN1C(=O)[C@H](CCCNC(=N)N)NC(=O)[C@@H]1CCCN1C(=O)[C@H](CCCNC(=N)N)NC(=O)[C@@H]1CCCN1C(=O)[C@H](CC(C)C)NC(=O)[C@H](Cc1ccc(O)cc1)NC(=O)[C@@H]1CCCN1C(=O)[C@@H]1CCCN1C(=O)[C@H](CCCNC(=N)N)NC(=O)[C@@H]1CCCN1C(=O)[C@H](CCCNC(=N)N)NC(=O)[C@H](CCCNC(=N)N)NC(=O)[C@@H](N)CCCNC(=N)N)C(=O)N1CCC[C@H]1C(=O)N1CCC[C@H]1C(=O)NCC(=O)N[C@@H](Cc1ccccc1)C(=O)N1CCC[C@H]1C(=O)N1CCC[C@H]1C(=O)N[C@@H](CCCNC(=N)N)C(=O)N[C@@H](Cc1ccccc1)C(=O)N1CCC[C@H]1C(=O)N1CCC[C@H]1C(=O)N[C@@H](CCCNC(=N)N)C(=O)N[C@@H](Cc1ccccc1)C(=O)N1CCC[C@H]1C(=O)O` [PR-39] (H-RRRPRPPYLPRPRPPPFFPPRLPPRIPPGFPPRFPPRFP-OH; N-terminus and C-terminus assumed), in the series with E. coli, ATCC 25922, the “antibacterial activity (clear zones on overlaid gel)” value is listed as “antibacterial activity”. Besides, the minimal bactericidal concentration (MBC) (in general, the lowest tested concentration that kills the bacteria rather than only halting them) is 8 µM (≈ 37.8 µg/mL) against Escherichia coli, 25922; 4 µM (≈ 18.9 µg/mL) against Salmonella typhimurium; above 64 µM against Streptococcus suis. The MIC (commonly the lowest concentration that inhibits growth of the organism) in the series with Escherichia coli, 25922 is 4 µM (≈ 18.9 µg/mL); against Salmonella typhimurium it was 4 µM (≈ 18.9 µg/mL); in the series with Streptococcus suis it was above 64 µM. Also, the “PAE (growth delay)” value in the series on S. typhimurium (0.1 MIC) is “slight growth delay”. The PAE result with S. typhimurium (1 MIC) and in the series with S. typhimurium (8 MICs) was “significantly increased” throughout. Moreover, the “concentration at which cytotoxicity occurred” value in series [1] came to 500 nM. Besides, the “O2- generation by neutrophils” value in series [2] (5 μM, incubated at least 45 min. before PMA stimulation) is listed as “significant reduction”; in series [2] (20 μM added at the same time as PMA), “did not affect”. The oxidase inhibition in series [2] (5 μM, longer pre-incubation periods before PMA) is listed as around 70%. Moreover, the “binding to p67phox” value in the series on p67^phox is recorded as “did not bind”.
